Calls of active or inactive are those of the source. The rule behind the calls is not given here.
Columns and labels:
KBV [1] = test: Reversal of Pgp-mediated paclitaxel resistance in human KBV cells assessed as cell viability at 10 uM in presence of paclitaxel incubated for 72 hrs by MTT assay; format: cell-based
KBV [2] = test: Reversal of Pgp-mediated paclitaxel resistance in human KBV cells assessed as cell viability at 5 uM in presence of paclitaxel incubated for 72 hrs by MTT assay; format: cell-based
KBV [3] = test: Reversal of Pgp-mediated multidrug resistance in human KBV cells assessed as fold change in paclitaxel IC50 at 5 uM after 72 hrs in presence of paclitaxel by MTT assay relative to control; format: cell-based
[4] = Cytotoxicity against human KBV cells assessed as cell viability at 10 uM incubated for 72 hrs by MTT assay; format: cell-based; settings: read-out: Activity
KBV [5] = test: Reversal of Pgp-mediated multidrug resistance in human KBV cells assessed as fold change in paclitaxel IC50 at 10 uM after 72 hrs in presence of paclitaxel by MTT assay relative to control; format: cell-based
[6] = Induction of cell cycle arrest in human KBV cells assessed as accumulation at sub-G1 phase at 10 uM after 24 hrs by PI/RNaseA staining based flow cytometric analysis (reference value: 4.26 +/- 0.35%); format: functional
[7] = Induction of cell cycle arrest in human KBV cells assessed as accumulation at sub-G1 phase at 10 uM after 24 hrs in presence of 0.1 uM paclitaxel by PI/RNaseA staining based flow cytometric analysis (reference value: 5.83 +/- 0.31%); format: functional
KBV [8] = test: Reversal of P-gp mediated drug efflux in human KBV cells assessed as increase in intracellular Rhodamine123 accumulation preincubated for 2 hrs followed by Rh123 addition measured after 0.5 hr by flow cytometry analysis; format: cell-based; settings: filed as modulator, dose 2-10 µM, time 2.5 hrs
KBV [9] = test: Reversal of Pgp-mediated multidrug resistance in human KBV cells assessed as fold change in vincristine IC50 at 10 uM after 72 hrs in presence of vincristine by MTT assay relative to control; format: cell-based
[10] = biological target: T1, Broad substrate specificity ATP-binding cassette transporter ABCG2 (Homo sapiens, UniProt Q9UNQ0); test: Reversal of BCRP-mediated multidrug resistance in human KBV cells assessed as fold change in mitoxantrone IC50 at 5 uM after 72 hrs in presence of mitoxantrone by MTT assay; format: cell-based
T1 sequence (Q9UNQ0 whole entry): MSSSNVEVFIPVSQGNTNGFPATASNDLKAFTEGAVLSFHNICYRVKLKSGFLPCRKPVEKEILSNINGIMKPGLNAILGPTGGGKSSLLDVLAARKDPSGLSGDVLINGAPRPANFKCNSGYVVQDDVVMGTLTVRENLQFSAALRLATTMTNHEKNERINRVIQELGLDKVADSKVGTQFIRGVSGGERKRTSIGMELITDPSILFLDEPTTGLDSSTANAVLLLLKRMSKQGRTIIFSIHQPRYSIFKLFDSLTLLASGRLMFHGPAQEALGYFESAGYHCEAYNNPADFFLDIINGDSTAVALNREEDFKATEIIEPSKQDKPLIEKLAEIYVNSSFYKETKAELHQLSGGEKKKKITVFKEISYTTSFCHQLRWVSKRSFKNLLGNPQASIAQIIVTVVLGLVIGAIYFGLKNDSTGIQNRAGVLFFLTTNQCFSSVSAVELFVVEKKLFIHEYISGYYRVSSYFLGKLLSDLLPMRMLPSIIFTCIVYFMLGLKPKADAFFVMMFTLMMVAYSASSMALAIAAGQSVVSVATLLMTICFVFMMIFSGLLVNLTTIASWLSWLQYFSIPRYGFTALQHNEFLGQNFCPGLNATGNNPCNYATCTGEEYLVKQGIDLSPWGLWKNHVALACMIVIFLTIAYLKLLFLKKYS

[11] = Induction of cell cycle arrest in human KBV cells assessed as accumulation at S phase at 10 uM after 24 hrs in presence of 0.1 uM paclitaxel by PI/RNaseA staining based flow cytometric analysis (reference value: 13.06 +/- 0.39%); format: functional
[12] = Induction of cell cycle arrest in human KBV cells assessed as accumulation at G2/M phase at 5 uM after 24 hrs in presence of 0.1 uM paclitaxel by PI/RNaseA staining based flow cytometric analysis (reference value: 28.03 +/- 0.95%); format: functional
[13] = Induction of cell cycle arrest in human KBV cells assessed as accumulation at sub-G1 phase at 5 uM after 24 hrs in presence of 0.1 uM paclitaxel by PI/RNaseA staining based flow cytometric analysis (reference value: 5.83 +/- 0.31%); format: functional
[14] = biological target: T1, Broad substrate specificity ATP-binding cassette transporter ABCG2; test: Reversal of BCRP-mediated multidrug resistance in human KBV cells assessed as fold change in mitoxantrone IC50 at 10 uM after 72 hrs in presence of mitoxantrone by MTT assay; format: cell-based
[15] = Induction of cell cycle arrest in human KBV cells assessed as accumulation at G1/G0 phase at 10 uM after 24 hrs by PI/RNaseA staining based flow cytometric analysis (reference value: 49.09 +/- 0.35%); format: functional
[16] = Induction of cell cycle arrest in human KBV cells assessed as accumulation at G2/M phase at 10 uM after 24 hrs by PI/RNaseA staining based flow cytometric analysis (reference value: 33.81 +/- 0.57%); format: functional
[17] = Induction of cell cycle arrest in human KBV cells assessed as accumulation at G2/M phase at 10 uM after 24 hrs in presence of 0.1 uM paclitaxel by PI/RNaseA staining based flow cytometric analysis (reference value: 28.03 +/- 0.95%); format: functional
[18] = Induction of cell cycle arrest in human KBV cells assessed as accumulation at G1/G0 phase at 5 uM after 24 hrs in presence of 0.1 uM paclitaxel by PI/RNaseA staining based flow cytometric analysis (reference value: 50.74 +/- 0.07%); format: functional
KBV [19] = test: Reversal of Pgp-mediated multidrug resistance in human KBV cells assessed as fold change in vincristine IC50 at 5 uM after 72 hrs in presence of vincristine by MTT assay relative to control; format: cell-based
[20] = Induction of cell cycle arrest in human KBV cells assessed as accumulation at S phase at 10 uM after 24 hrs by PI/RNaseA staining based flow cytometric analysis (reference value: 11.32 +/- 0.04%); format: functional
[21] = Induction of cell cycle arrest in human KBV cells assessed as accumulation at S phase at 5 uM after 24 hrs in presence of 0.1 uM paclitaxel by PI/RNaseA staining based flow cytometric analysis (reference value: 13.06 +/- 0.39%); format: functional
KBV [22] = test: Effect on Pgp protein expression in human KBV cells at 5 to 10 uM after 24 hrs by Western blot analysis; format: functional, cell-based; settings: dose 5-10 µM
[23] = Induction of cell cycle arrest in human KBV cells assessed as accumulation at G1/G0 phase at 10 uM after 24 hrs in presence of 0.1 uM paclitaxel by PI/RNaseA staining based flow cytometric analysis (reference value: 50.74 +/- 0.07%); format: functional
Homo sapiens = organism: Homo sapiens; test: Modulation of Pgp-ATPase activity (unknown origin) assessed as fold increase in ATP consumption at 0.5 mM preincubated for 5 mins followed by Mg-ATP addition and measured after 45 mins by microplate reader analysis; settings: filed as modulator, time 50.0 min
[24] = Antitumor activity against human KBV cells xenografted model assessed as reduction in tumor weight at 10 mg/kg in presence of 30 mg/kg paclitaxel; format: functional

## CSCC[C@H](N)C(=O)O[C@H]1CC[C@]2(C)[C@H]3C[C@@H](O)[C@@H]4[C@@H]([C@]5(C)CC[C@H](C(C)(C)O)O5)CC[C@@]4(C)[C@]3(C)CC[C@H]2C1(C)C
KBV [1]; filed as modulator
  Activity: 23%
KBV [2]; filed as modulator
  Activity: 26%
KBV [3]
  fold change (FC): 17
[4]
  viability at 72 h, 10 µM: 90%
KBV [5]
  fold change (FC): 34

## CSCC[C@H](NC(=O)OC(C)(C)C)C(=O)O[C@H]1CC[C@]2(C)[C@H]3C[C@@H](O)[C@@H]4[C@@H]([C@]5(C)CC[C@H](C(C)(C)O)O5)CC[C@@]4(C)[C@]3(C)CC[C@H]2C1(C)C
KBV [1]; filed as modulator
  Activity: 21%
[6]
  Activity: 3.31%
[7]
  Activity: 22.66%
KBV [8]
  Activity: Dose-dependent effect
KBV [9]
  fold change (FC): 8
[10]
  fold change (FC): 1.4
[11]
  Activity: 11.1%
[12]
  Activity: 51.66%
[13]
  Activity: 19.8%
[14]
  fold change (FC): 1.6
[15]
  Activity: 42.81%
[16]
  Activity: 38.79%
KBV [2]; filed as modulator
  Activity: 26%
KBV [3]
  fold change (FC): 25
[17]
  Activity: 51.06%
[18]
  Activity: 14%
KBV [19]
  fold change (FC): 3
[20]
  Activity: 13.67%
[4]
  viability at 72 h, 10 µM: 120%
[21]
  Activity: 12.94%
KBV [22]
  Activity: inactive
[23]
  Activity: 13.75%
Homo sapiens
  fold change (FC): 6
KBV [5]
  fold change (FC): 59

## COc1ccc(CCN(C)CCCC(C#N)(c2ccc(OC)c(OC)c2)C(C)C)cc1OC (stereo not drawn)
KBV [1]; filed as modulator
  Activity: 28%
[6]
  Activity: 4.69%
[7]
  Activity: 18.47%
KBV [9]
  fold change (FC): 16
[11]
  Activity: 11.57%
[14]
  fold change (FC): 1
[15]
  Activity: 51.35%
[16]
  Activity: 31.36%
[17]
  Activity: 57.42%
[20]
  Activity: 11.44%
[23]
  Activity: 11.1%
Homo sapiens
  fold change (FC): 5.6
KBV [5]
  fold change (FC): 40

## CC(C)(C)OC(=O)NCCCCCC(=O)N[C@H]1CC[C@]2(C)[C@H]3C[C@@H](O)[C@@H]4[C@@H]([C@]5(C)CC[C@H](C(C)(C)O)O5)CC[C@@]4(C)[C@]3(C)CC[C@H]2C1(C)C
[24]
  inhibition in vivo at 10 mg/kg: 53.7%

## CSCC[C@H](NC(=O)OC(C)(C)C)C(=O)O[C@H]1CC[C@]2(C)[C@H]3C[C@@H](O)[C@@H]4[C@@H]([C@]5(C)CC[C@@H](C(C)(C)O)O5)CC[C@@]4(C)[C@]3(C)CC[C@H]2C1(C)C
KBV [1]; filed as modulator
  Activity: 16%
KBV [9]
  fold change (FC): 14
[10]
  fold change (FC): 0.8
[14]
  fold change (FC): 1.2
KBV [2]; filed as modulator
  Activity: 19%
KBV [3]
  fold change (FC): 18
KBV [19]
  fold change (FC): 5
[4]
  viability at 72 h, 10 µM: 88%
KBV [5]
  fold change (FC): 51

## CC(C)(O)[C@@H]1CC[C@@](C)([C@H]2CC[C@]3(C)[C@@H]2[C@H](O)C[C@@H]2[C@@]4(C)CC[C@H](OC(=O)[C@@H](N)Cc5ccccc5)C(C)(C)[C@@H]4CC[C@]23C)O1
KBV [1]; filed as modulator
  Activity: 29%
KBV [2]; filed as modulator
  Activity: 35%
[4]
  viability at 72 h, 10 µM: 100%

## C[C@@H](OCc1ccccc1)[C@H](N)C(=O)O[C@H]1CC[C@]2(C)[C@H]3C[C@@H](O)[C@@H]4[C@@H]([C@]5(C)CC[C@H](C(C)(C)O)O5)CC[C@@]4(C)[C@]3(C)CC[C@H]2C1(C)C
KBV [1]; filed as modulator
  Activity: 18%
KBV [2]; filed as modulator
  Activity: 31%
[4]
  viability at 72 h, 10 µM: 20%

## CC(C)(C)OC(=O)C[C@H](NC(=O)OC(C)(C)C)C(=O)O[C@H]1CC[C@]2(C)[C@H]3C[C@@H](O)[C@@H]4[C@@H]([C@]5(C)CC[C@@H](C(C)(C)O)O5)CC[C@@]4(C)[C@]3(C)CC[C@H]2C1(C)C
KBV [1]; filed as modulator
  Activity: 17%
KBV [2]; filed as modulator
  Activity: 35%
[4]
  viability at 72 h, 10 µM: 88%

## CC(C)(O)[C@@H]1CC[C@@](C)([C@H]2CC[C@]3(C)[C@@H]2[C@H](O)C[C@@H]2[C@@]4(C)CC[C@H](OC(=O)CN)C(C)(C)[C@@H]4CC[C@]23C)O1
KBV [1]
  Activity: 63%
KBV [2]
  Activity: 98%
[4]
  viability at 72 h, 10 µM: 86%

## CC(C)(C)OC(=O)NCC(=O)O[C@H]1CC[C@]2(C)[C@H]3C[C@@H](O)[C@@H]4[C@@H]([C@]5(C)CC[C@@H](C(C)(C)O)O5)CC[C@@]4(C)[C@]3(C)CC[C@H]2C1(C)C
KBV [1]; filed as modulator
  Activity: 18%
KBV [2]; filed as modulator
  Activity: 30%
[4]
  viability at 72 h, 10 µM: 107%

## CC(C)(C)OC(=O)N[C@@H](Cc1ccccc1)C(=O)O[C@H]1CC[C@]2(C)[C@H]3C[C@@H](O)[C@@H]4[C@@H]([C@]5(C)CC[C@@H](C(C)(C)O)O5)CC[C@@]4(C)[C@]3(C)CC[C@H]2C1(C)C
KBV [1]; filed as modulator
  Activity: 16%
KBV [2]; filed as modulator
  Activity: 17%
[4]
  viability at 72 h, 10 µM: 17%

## CSCC[C@H](N)C(=O)O[C@H]1CC[C@]2(C)[C@H]3C[C@@H](O)[C@@H]4[C@@H]([C@]5(C)CC[C@@H](C(C)(C)O)O5)CC[C@@]4(C)[C@]3(C)CC[C@H]2C1(C)C
KBV [1]; filed as modulator
  Activity: 31%
KBV [2]
  Activity: 56%
KBV [3]
  fold change (FC): 0.4
[4]
  viability at 72 h, 10 µM: 100%
KBV [5]
  fold change (FC): 6

## CC(C)(C)OC(=O)N[C@@H](Cc1cn(C(=O)OC(C)(C)C)c2ccccc12)C(=O)O[C@H]1CC[C@]2(C)[C@H]3C[C@@H](O)[C@@H]4[C@@H]([C@]5(C)CC[C@H](C(C)(C)O)O5)CC[C@@]4(C)[C@]3(C)CC[C@H]2C1(C)C
KBV [1]
  Activity: 161%
KBV [2]
  Activity: 165%
[4]
  viability at 72 h, 10 µM: 132%
